Measured values reported in ChEMBL document CHEMBL3875178, “Discovery of oral-available resveratrol-caffeic acid based hybrids inhibiting acetylated and phosphorylated STAT3 protein” (Eur J Med Chem, 2016).
Activity calls are given as the source filed them. No cut-off for these calls is given here.

Columns and labels:
[1] = Growth inhibition of human HT-29 cells after 48 hrs by MTT assay; assay type: functional, cell-based; settings: HT-29, 48 h
[2] = Growth inhibition of human MDA-MB-231 cells after 48 hrs by MTT assay; assay type: functional, cell-based; settings: MDA-MB-231, 48 h
[3] = system: MDA-MB-231; experiment: Induction of apoptosis in human MDA-MB-231 cells assessed as necrotic cells at 8 uM after 48 hrs by Annexin-V FITC/propidium iodide staining based flow cytometry (reference value: 0.8%); assay type: functional
[4] = system: MDA-MB-231; experiment: Induction of apoptosis in human MDA-MB-231 cells assessed as late apoptotic cells at 10 uM after 48 hrs by Annexin-V FITC/propidium iodide staining based flow cytometry (reference value: 0.4%); assay type: functional
[5] = system: MDA-MB-231; experiment: Induction of apoptosis in human MDA-MB-231 cells assessed as necrotic cells at 1 uM after 48 hrs by Annexin-V FITC/propidium iodide staining based flow cytometry (reference value: 0.8%); assay type: functional
[6] = system: MDA-MB-231; experiment: Induction of apoptosis in human MDA-MB-231 cells assessed as increase in cleaved caspase-8 expression after 48 hrs by Western blot method; assay type: functional, cell-based
[7] = system: MDA-MB-231; experiment: Induction of apoptosis in human MDA-MB-231 cells assessed as early apoptotic cells at 8 uM after 48 hrs by Annexin-V FITC/propidium iodide staining based flow cytometry (reference value: 2.6%); assay type: functional
[8] = biological target: Signal transducer and activator of transcription 3 (Homo sapiens) (UniProt P40763); experiment: Inhibition of STAT3 acetylation at Lys-685 residue in human MDA-MB-231 cells after 48 hrs by Western blot method; assay type: cell-based
[9] = biological target: Signal transducer and activator of transcription 3 (Homo sapiens) (UniProt P40763); experiment: Inhibition of STAT3 phosphorylation at Tyr-705 residue in human MDA-MB-231 cells after 48 hrs by Western blot method; assay type: cell-based
[10] = system: MDA-MB-231; experiment: Induction of apoptosis in human MDA-MB-231 cells assessed as early apoptotic cells at 1 uM after 48 hrs by Annexin-V FITC/propidium iodide staining based flow cytometry (reference value: 2.6%); assay type: functional
[11] = system: MDA-MB-231; experiment: Induction of apoptosis in human MDA-MB-231 cells assessed as increase in cleaved caspase-9 expression after 48 hrs by Western blot method; assay type: functional, cell-based
[12] = Effect on total STAT3 protein level in human MDA-MB-231 cells at 1 to 5 uM after 48 hrs by Western blot method; assay type: ADME, cell-based; settings: mda-mb-231, 48 h
[13] = system: MDA-MB-231; experiment: Induction of apoptosis in human MDA-MB-231 cells assessed as early apoptotic cells at 5 uM after 48 hrs by Annexin-V FITC/propidium iodide staining based flow cytometry (reference value: 2.6%); assay type: functional
[14] = system: MDA-MB-231; experiment: Induction of apoptosis in human MDA-MB-231 cells assessed as early apoptotic cells at 10 uM after 48 hrs by Annexin-V FITC/propidium iodide staining based flow cytometry (reference value: 2.6%); assay type: functional
[15] = system: 4T1; experiment: Antitumor activity against mouse 4T1 cells implanted in Kunming mouse assessed as tumor growth inhibition at 10 to 20 mg/kg, po qd for 14 days; assay type: functional, organism-based
[16] = system: MDA-MB-231; experiment: Induction of apoptosis in human MDA-MB-231 cells assessed as live cells at 10 uM after 48 hrs by Annexin-V FITC/propidium iodide staining based flow cytometry (reference value: 96.1%); assay type: functional
[17] = system: MDA-MB-231; experiment: Induction of apoptosis in human MDA-MB-231 cells assessed as late apoptotic cells at 2 uM after 48 hrs by Annexin-V FITC/propidium iodide staining based flow cytometry (reference value: 0.4%); assay type: functional
[18] = biological target: Signal transducer and activator of transcription 3 (Homo sapiens) (UniProt P40763); experiment: Inhibition of STAT3 acetylation at Lys-685 residue in human MDA-MB-231 cells assessed as increase in PTPN6 mRNA at 1- 10 uM expression after 48 hrs by RT-PCR method; assay type: cell-based
[19] = system: MDA-MB-231; experiment: Potency index, ratio of caffeic acid IC50 to compound IC50 for human MDA-MB-231 cells; assay type: functional
[20] = system: MDA-MB-231; experiment: Induction of apoptosis in human MDA-MB-231 cells assessed as late apoptotic cells at 5 uM after 48 hrs by Annexin-V FITC/propidium iodide staining based flow cytometry (reference value: 0.4%); assay type: functional
[21] = system: MDA-MB-231; experiment: Induction of apoptosis in human MDA-MB-231 cells assessed as late apoptotic cells at 1 uM after 48 hrs by Annexin-V FITC/propidium iodide staining based flow cytometry (reference value: 0.4%); assay type: functional
[22] = system: MDA-MB-231; experiment: Induction of apoptosis in human MDA-MB-231 cells assessed as early apoptotic cells at 2 uM after 48 hrs by Annexin-V FITC/propidium iodide staining based flow cytometry (reference value: 2.6%); assay type: functional
[23] = system: MDA-MB-231; experiment: Antiproliferative activity against human MDA-MB-231 cells assessed as inhibition of colony formation after 48 hrs by crystal violet staining based assay; assay type: functional, cell-based
[24] = system: MDA-MB-231; experiment: Induction of apoptosis in human MDA-MB-231 cells assessed as increase in cleaved caspase-3 expression after 48 hrs by Western blot method; assay type: functional, cell-based
[25] = system: MDA-MB-231; experiment: Induction of apoptosis in human MDA-MB-231 cells assessed as live cells at 8 uM after 48 hrs by Annexin-V FITC/propidium iodide staining based flow cytometry (reference value: 96.1%); assay type: functional
[26] = system: MDA-MB-231; experiment: Induction of apoptosis in human MDA-MB-231 cells assessed as live cells at 5 uM after 48 hrs by Annexin-V FITC/propidium iodide staining based flow cytometry (reference value: 96.1%); assay type: functional
[27] = system: MDA-MB-231; experiment: Induction of apoptosis in human MDA-MB-231 cells assessed as necrotic cells at 5 uM after 48 hrs by Annexin-V FITC/propidium iodide staining based flow cytometry (reference value: 0.8%); assay type: functional
[28] = system: MDA-MB-231; experiment: Induction of apoptosis in human MDA-MB-231 cells assessed as late apoptotic cells at 8 uM after 48 hrs by Annexin-V FITC/propidium iodide staining based flow cytometry (reference value: 0.4%); assay type: functional
[29] = biological target: Signal transducer and activator of transcription 3 (Homo sapiens) (UniProt P40763); experiment: Inhibition of STAT3 phosphorylation at Tyr-705 residue in human MDA-MB-231 cells assessed as decrease in Cyclin D1 mRNA expression at 1 to 5 uM after 48 hrs by RT-PCR method; assay type: cell-based
[30] = system: MDA-MB-231; experiment: Induction of apoptosis in human MDA-MB-231 cells assessed as necrotic cells at 10 uM after 48 hrs by Annexin-V FITC/propidium iodide staining based flow cytometry (reference value: 0.8%); assay type: functional
[31] = biological target: Signal transducer and activator of transcription 3 (Homo sapiens) (UniProt P40763); experiment: Inhibition of STAT3 acetylation at Lys-685 residue in human MDA-MB-231 cells assessed as increase in CDKN2A mRNA at 1- 10 uM expression after 48 hrs by RT-PCR method; assay type: cell-based
[32] = system: Mus musculus; experiment: In vivo inhibition of STAT3 phosphorylation at Tyr-705 residue in tumor of Kunming mouse implanted with mouse 4T1 cells at 10 to 20 mg/kg, po qd for 14 days; assay type: functional, organism-based
[33] = biological target: Signal transducer and activator of transcription 3 (Homo sapiens) (UniProt P40763); experiment: Inhibition of STAT3 phosphorylation at Tyr-705 residue in human MDA-MB-231 cells assessed as decrease in Cyclin D1 protein expression at 1 to 5 uM after 48 hrs by Western blot method; assay type: cell-based
[34] = system: Mus musculus; experiment: Toxicity in Kunming mouse implanted with mouse 4T1 cells assessed as body weight loss at 10 to 20 mg/kg, po qd for 14 days measured during compound dosing; assay type: organism-based; settings: in vivo, 336 h
[35] = biological target: Signal transducer and activator of transcription 3 (Homo sapiens) (UniProt P40763); experiment: Inhibition of STAT3 acetylation at Lys-685 residue in human MDA-MB-231 cells assessed as increase in DLEC1 mRNA at 1- 10 uM expression after 48 hrs by RT-PCR method; assay type: cell-based
[36] = system: MDA-MB-231; experiment: Induction of apoptosis in human MDA-MB-231 cells assessed as live cells at 1 uM after 48 hrs by Annexin-V FITC/propidium iodide staining based flow cytometry (reference value: 96.1%); assay type: functional
[37] = system: MDA-MB-231; experiment: Potency index, ratio of resveratrol IC50 to compound IC50 for human MDA-MB-231 cells; assay type: functional
[38] = biological target: Signal transducer and activator of transcription 3 (Homo sapiens) (UniProt P40763); experiment: Inhibition of STAT3 phosphorylation at Tyr-705 residue in human MDA-MB-231 cells assessed as decrease in Bcl2 protein expression at 1 to 5 uM after 48 hrs by Western blot method; assay type: cell-based
[39] = system: MDA-MB-231; experiment: Induction of apoptosis in human MDA-MB-231 cells assessed as necrotic cells at 2 uM after 48 hrs by Annexin-V FITC/propidium iodide staining based flow cytometry (reference value: 0.8%); assay type: functional
[40] = biological target: Signal transducer and activator of transcription 3 (Homo sapiens) (UniProt P40763); experiment: Inhibition of STAT3 phosphorylation at Tyr-705 residue in human MDA-MB-231 cells assessed as decrease in Bcl2 mRNA expression at 1 to 5 uM after 48 hrs by RT-PCR method; assay type: cell-based
[41] = system: MDA-MB-231; experiment: Induction of apoptosis in human MDA-MB-231 cells assessed as live cells at 2 uM after 48 hrs by Annexin-V FITC/propidium iodide staining based flow cytometry (reference value: 96.1%); assay type: functional
[42] = system: HT-29; experiment: Potency index, ratio of resveratrol IC50 to compound IC50 for human HT-29 cells; assay type: functional

Chain of Signal transducer and activator of transcription 3 (Homo sapiens) (P40763 whole entry): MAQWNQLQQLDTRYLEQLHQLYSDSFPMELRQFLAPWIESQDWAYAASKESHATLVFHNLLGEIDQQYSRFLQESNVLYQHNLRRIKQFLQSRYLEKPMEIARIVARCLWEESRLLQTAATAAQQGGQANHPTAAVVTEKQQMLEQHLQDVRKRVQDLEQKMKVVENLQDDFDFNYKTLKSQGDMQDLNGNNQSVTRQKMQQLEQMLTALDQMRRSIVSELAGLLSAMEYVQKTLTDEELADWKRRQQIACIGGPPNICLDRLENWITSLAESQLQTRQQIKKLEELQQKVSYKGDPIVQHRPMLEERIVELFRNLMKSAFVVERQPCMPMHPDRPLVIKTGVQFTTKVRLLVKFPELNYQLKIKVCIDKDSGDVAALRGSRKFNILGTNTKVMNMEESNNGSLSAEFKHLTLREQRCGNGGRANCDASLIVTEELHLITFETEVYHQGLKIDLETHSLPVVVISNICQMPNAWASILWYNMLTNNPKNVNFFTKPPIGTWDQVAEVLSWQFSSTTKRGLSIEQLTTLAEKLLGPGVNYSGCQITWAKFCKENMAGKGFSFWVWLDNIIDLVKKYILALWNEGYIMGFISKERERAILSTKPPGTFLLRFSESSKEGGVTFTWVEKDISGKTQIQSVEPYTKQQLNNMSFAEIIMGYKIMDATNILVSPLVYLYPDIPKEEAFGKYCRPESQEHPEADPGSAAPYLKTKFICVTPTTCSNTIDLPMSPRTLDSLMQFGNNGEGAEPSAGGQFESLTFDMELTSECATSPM

In the case of `Oc1ccc(/C=C/c2cc(O)cc(O)c2)cc1` [RESVERATROL], the IC50 [1] is reported as over 100 µM and the IC50 [2] is reported as over 100 µM.

For `COc1cc(/C=C/c2ccc(NC(=O)/C=C/c3cc(OC)c(OC)c(OC)c3)cc2)cc(OC)c1`, the Activity [3] was 0.6%, the Activity [4] was 10.6% and the Activity [5] was 1.3%. For the same compound, the Activity [6] was “Active”, the Activity [7] was 37.1% and the IC50 [1] was 1.82 µM. The inhibition [8] was “Dose-dependent effect”, the inhibition [9] was “Dose-dependent effect” and the Activity [10] was 7.7%. The Activity [11] was “Dose-dependent effect”, the Activity [12] was “Non-Toxic” and the Activity [13] was 16.2%. For the same compound, the IC50 [2] was 2.14 µM, the Activity [14] was 74.6% and the TGI [15] was “Active”. For the same compound, the Activity [16] was 18.5%, the Activity [17] was 1.4% and the inhibition [18] was “Active”. For the same compound, the “Ratio IC50” value [19] was over 50, the Activity [20] was 4.7% and the Activity [21] was 1.3%. The Activity [22] was 9.8%, the inhibition [23] was “Dose-dependent effect” and the Activity [24] was “Dose-dependent effect”. For the same compound, the Activity [25] was 51.8%, the Activity [26] was 78% and the Activity [27] was 1.1%. The Activity [28] was 6.2%, the inhibition [29] was “Active” and the Activity [30] was 0.7%. The inhibition [31] was “Active”, the inhibition [32] was “Active” and the inhibition [33] was “Active”. For the same compound, the Activity [34] was “Non-Toxic”, the inhibition [35] was “Active” and the Activity [36] was 89.7%. For the same compound, the “Ratio IC50” value [37] was over 50, the inhibition [38] was “Active” and the Activity [39] was 1.3%. The inhibition [40] was “Active” and the Activity [41] was 87.5%.

`COc1cc(/C=C/c2ccc(NC(=O)/C=C/c3cccc(F)c3)cc2)cc(OC)c1` gave an IC50 [1] of 16.8 µM and an IC50 [2] of 17.3 µM.

In the case of `COc1cc(/C=C/c2ccc(NC(=O)/C=C/c3ccc(OC)c(OC)c3)cc2)cc(OC)c1`, the IC50 [1] is reported as 0.96 µM, the IC50 [2] is reported as 7.74 µM and the “Ratio IC50” value [42] is reported as over 50.

`COc1cc(/C=C/c2ccc(NC(=O)/C=C/c3ccc(C#N)cc3)cc2)cc(OC)c1` showed an IC50 [1] of 3.32 µM and an IC50 [2] of 7.74 µM.

Work on `COc1cc(/C=C/c2ccc(OC(=O)/C=C/c3ccc(F)cc3)cc2)cc(OC)c1` yielded an IC50 [1] of 7.77 µM and an IC50 [2] of 6.21 µM.

Work on `COc1cc(/C=C/c2ccc(OC(=O)/C=C/c3ccc(C(F)(F)F)cc3)cc2)cc(OC)c1` yielded an IC50 [1] of 9.09 µM and an IC50 [2] of 6.91 µM.

`COc1cc(/C=C/c2ccc(NC(=O)/C=C/c3ccc(F)cc3F)cc2)cc(OC)c1` gave an IC50 [1] of 18.1 µM and an IC50 [2] of over 20 µM.

Work on `COc1cc(/C=C/c2ccc(NC(=O)/C=C/c3ccccn3)cc2)cc(OC)c1` yielded an IC50 [1] of 6.12 µM and an IC50 [2] of 3.4 µM.

In the case of `COc1cc(/C=C/c2ccc(OC(=O)/C=C/c3cc(OC)c(OC)c(OC)c3)cc2)cc(OC)c1`, the IC50 [1] is reported as 2.91 µM and the IC50 [2] is reported as 3.08 µM.

With `COc1cc(/C=C/c2ccc(NC(=O)/C=C/c3ccc(Cl)cc3)cc2)cc(OC)c1` the IC50 [1] was 10.3 µM and the IC50 [2] was 14.1 µM.

In the case of `O=C(O)/C=C/c1ccc(O)c(O)c1` [CAFFEIC ACID], the IC50 [1] is reported as over 100 µM and the IC50 [2] is reported as over 100 µM.
